Source: patent US8258160B2, “SCD1 inhibitors triazole and tetrazole compounds” (Novartis AG, priority 2006, dated 2012)

SMILES | melting point
Cc1nc(-c2cn(Cc3ccc(F)cc3)nn2)sc1C(=O)NCc1ccccc1 [Example 1.2, N-benzyl-2-(1-(4-fluorobenzyl)-1H-1,2,3-triazol-4-yl)-4-methylthiazole-5-carboxamide] | 114 to 115 °C
Cc1nc(-c2cn(Cc3ccc(C(F)(F)F)cc3)nn2)sc1C(=O)NCc1ccccc1 [Example 1.3, N-benzyl-4-methyl-2-(1-(4-(trifluoromethyl)benzyl)-1H-1,2,3-triazol-4-yl)thiazole-5-carboxamide] | 131 to 132 °C
Cc1nc(-c2cn(Cc3ccccc3)nn2)sc1C(=O)NCc1cccnc1 [Example 4, 2-(1-benzyl-1H-1,2,3-triazol-4-yl)-4-methyl-N-(pyridin-3-ylmethyl)thiazole-5-carboxamide] | 212 to 213 °C
Cc1nc(-c2cn(Cc3ccc(F)cc3)nn2)sc1C(=O)NCc1cccnc1 [Example 4.1, 2-(1-(4-fluorobenzyl)-1H-1,2,3-triazol-4-yl)-4-methyl-N-(pyridin-3-ylmethyl)thiazole-5-carboxamide] | 212 to 213 °C
Cc1nc(-c2cn(Cc3ccc(C(F)(F)F)cc3)nn2)sc1C(=O)NCc1cccnc1 [Example 4.2, 4-methyl-N-(pyridin-3-ylmethyl)-2-(1-(4-(trifluoromethyl)benzyl)-1H-1,2,3-triazol-4-yl)thiazole-5-carboxamide] | 204 to 205 °C
Cc1nc(-c2cn(CCC3CC3)nn2)sc1C(=O)NCc1cccnc1 [Example 4.4, 2-(1-(2-cyclopropylethyl)-1H-1,2,3-triazol-4-yl)-4-methyl-N-(pyridin-3-ylmethyl)thiazole-5-carboxamide] | 124 to 125 °C
Cc1nc(-c2cn(CC3CC3)nn2)sc1C(=O)NCc1cccnc1 [Example 4.5, 2-(1-(cyclopropylmethyl)-1H-1,2,3-triazol-4-yl)-4-methyl-N-(pyridin-3-ylmethyl)thiazole-5-carboxamide] | 140 to 141 °C
Cc1nc(-c2nn[nH]n2)sc1C(=O)NCc1cccnc1 [Example 6, 4-methyl-N-(pyridin-3-ylmethyl)-2-(2H-tetrazol-5-yl)thiazole-5-carboxamide] | > 200 °C (dec.)
Cc1nc(-c2n[nH]c(Cc3ccccc3)n2)sc1C(=O)NCc1ccccc1 [Example 8, N-benzyl-2-(5-benzyl-1H-1,2,4-triazol-3-yl)-4-methylthiazole-5-carboxamide] | 235 to 237 °C
Cc1cc(-c2n[nH]c(Cc3ccccc3)n2)sc1C(=O)NCc1ccccc1 [Example 9, N-benzyl-5-(5-benzyl-1H-1,2,4-triazol-3-yl)-3-methylthiophene-2-carboxamide] | 168 to 171 °C
Cc1nc(-n2cc(-c3ccccc3)nn2)sc1C(=O)NCc1ccccc1 [Example 10, N-benzyl-4-methyl-2-(4-phenyl-1H-1,2,3-triazol-1-yl)thiazole-5-carboxamide] | 175 to 178 °C
Cc1nc(-n2cc(CCc3ccccc3)nn2)sc1C(=O)NCc1ccccc1 [Example 10.2, N-benzyl-4-methyl-2-(4-phenethyl-1H-1,2,3-triazol-1-yl)thiazole-5-carboxamide] | 167 to 170 °C
Cc1nc(-n2cc(CCCc3ccccc3)nn2)sc1C(=O)NCc1ccccc1 [Example 10.3, N-benzyl-4-methyl-2-(4-(3-phenylpropyl)-1H-1,2,3-triazol-1-yl)thiazole-5-carboxamide] | 94 to 97 °C
Cc1nc(-n2cc(COc3ccccc3)nn2)sc1C(=O)NCc1ccccc1 [Example 10.4, N-benzyl-4-methyl-2-(4-(phenoxymethyl)-1H-1,2,3-triazol-1-yl)thiazole-5-carboxamide] | 140 to 143 °C
COc1ccc(-c2cn(-c3nc(C)c(C(=O)NCc4ccccc4)s3)nn2)cc1 [Example 10.5, N-benzyl-2-(4-(4-methoxyphenyl)-1H-1,2,3-triazol-1-yl)-4-methylthiazole-5-carboxamide] | 168 to 171 °C
Cc1nc(-n2cc(-c3ccccn3)nn2)sc1C(=O)NCc1ccccc1 [Example 10.6, N-benzyl-4-methyl-2-(4-(pyridin-2-yl)-1H-1,2,3-triazol-1-yl)thiazole-5-carboxamide] | 184 to 187 °C
Cc1nc(-n2cc(C(O)c3ccccc3)nn2)sc1C(=O)NCc1ccccc1 (stereo not shown) [Example 10.7, N-benzyl-2-(4-(hydroxy(phenyl)methyl)-1H-1,2,3-triazol-1-yl)-4-methylthiazole-5-carboxamide] | 143 to 146 °C
Cc1nc(-n2cc(-c3ccc(OCc4ccccc4)cc3)nn2)sc1C(=O)NCc1ccccc1 [Example 10.8, N-benzyl-2-(4-(4-(benzyloxy)phenyl)-1H-1,2,3-triazol-1-yl)-4-methylthiazole-5-carboxamide] | 237 to 240 °C
Cc1nc(-n2cc(-c3cccnc3)nn2)sc1C(=O)NCc1ccccc1 [Example 10.9, N-benzyl-4-methyl-2-(4-(pyridin-3-yl)-1H-1,2,3-triazol-1-yl)thiazole-5-carboxamide] | 117 to 119 °C

SMILES | melting point
Cc1nc(-n2cc(CNc3ccccc3)nn2)sc1C(=O)NCc1ccccc1 [Example 10.10, N-benzyl-4-methyl-2-(4-((phenylamino)methyl)-1H-1,2,3-triazol-1-yl)thiazole-5-carboxamide] | 159 to 162 °C
Cc1nc(-n2cc(-c3ccsc3)nn2)sc1C(=O)NCc1ccccc1 [Example 10.11, N-benzyl-4-methyl-2-(4-(thiophen-3-yl)-1H-1,2,3-triazol-1-yl)thiazole-5-carboxamide] | 123 to 126 °C
Cc1nc(-n2cc([C@H](O)c3ccccc3)nn2)sc1C(=O)NCc1ccccc1 [Example 10.12, (R)—N-benzyl-2-(4-(hydroxy(phenyl)methyl)-1H-1,2,3-triazol-1-yl)-4-methylthiazole-5-carboxamide] | 146 to 149 °C
Cc1nc(-n2cc(-c3ccc(F)cc3)nn2)sc1C(=O)NCc1ccccc1 [Example 10.13, N-benzyl-2-(4-(4-fluorophenyl)-1H-1,2,3-triazol-1-yl)-4-methylthiazole-5-carboxamide] | 203 to 205 °C
Cc1nc(-n2cc(C(=O)c3ccccc3)nn2)sc1C(=O)NCc1ccccc1 [Example 11, 2-(4-benzoyl-1H-1,2,3-triazol-1-yl)-N-benzyl-4-methylthiazole-5-carboxamide] | 176 to 178 °C
Cc1nc(-n2cc(CCCc3ccccc3)nn2)sc1C(=O)NCc1cccnc1 [Example 14, 4-methyl-2-(4-(3-phenylpropyl)-1H-1,2,3-triazol-1-yl)-N-(pyridin-3-ylmethyl)thiazole-5-carboxamide] | 108 to 110 °C
Cc1nc(-n2cc(CCCc3ccccc3)nn2)sc1C(=O)NCc1ccc(F)c(F)c1 [Example 14.1, N-(3,4-difluorobenzyl)-4-methyl-2-(4-(3-phenylpropyl)-1H-1,2,3-triazol-1-yl)thiazole-5-carboxamide] | 81 to 84 °C
Cc1nc(-n2cc(CCc3ccccc3)nn2)sc1C(=O)NCc1cccnc1 [Example 14.2, 4-methyl-2-(4-phenethyl-1H-1,2,3-triazol-1-yl)-N-(pyridin-3-ylmethyl)thiazole-5-carboxamide] | 114 to 116 °C
Cc1nc(-n2cc(C(=O)NCc3ccccc3)nn2)sc1C(=O)NCc1ccccc1 [Example 18, N-benzyl-2-(4-(benzylcarbamoyl)-1H-1,2,3-triazol-1-yl)-4-methylthiazole-5-carboxamide] | 178 to 180 °C
Cc1nc(-n2nnc(C(=O)NCc3ccccc3)c2C)sc1C(=O)NCc1ccccc1 [Example 18.2, N-benzyl-2-(4-(benzylcarbamoyl)-5-methyl-1H-1,2,3-triazol-1-yl)-4-methylthiazole-5-carboxamide] | 183 to 186 °C
Cc1cc(-n2nnc(-c3ccccc3)n2)sc1C(=O)NCc1ccccc1 [Example 21, N-benzyl-3-methyl-5-(5-phenyl-2H-tetrazol-2-yl)thiophene-2-carboxamide] | 155 to 158 °C
Cc1cc(-c2ncn(Cc3ccc(F)cc3)n2)sc1C(=O)NCc1ccccc1 [Example 23, N-benzyl-5-(1-(4-fluorobenzyl)-1H-1,2,4-triazol-3-yl)-3-methylthiophene-2-carboxamide] | 128 to 130 °C
Cc1cc(-c2ncn(Cc3ccc(F)cc3)n2)sc1C(=O)NCc1cccnc1 [Example 23.1, 5-(1-(4-fluorobenzyl)-1H-1,2,4-triazol-3-yl)-3-methyl-N-(pyridin-3-ylmethyl)thiophene-2-carboxamide] | 154 to 155 °C
Cc1nc(-c2cc(CCc3ccccc3)no2)sc1C(=O)NCc1ccccc1 [Example 27.1, N-benzyl-4-methyl-2-(3-phenethylisoxazol-5-yl)thiazole-5-carboxamide] | 114 to 115 °C
Cc1nc(-c2cn(CC(F)(F)c3ccccc3)nn2)sc1C(=O)NCc1cccnc1 [Example 30, 2-(1-(2,2-difluoro-2-phenylethyl)-1H-1,2,3-triazol-4-yl)-4-methyl-N-(pyridin-3-ylmethyl)thiazole-5-carboxamide] | 150 to 151 °C
Cc1nc(-n2[nH]c(C)c(Cc3ccc(Cl)cc3)c2=O)sc1C(=O)NCc1cccnc1 [Example 33, 2-(4-(4-chlorobenzyl)-3-methyl-5-oxo-2,5-dihydro-1H-pyrazol-1-yl)-4-methyl-N-(pyridin-3-ylmethyl)thiazole-5-carboxamide] | 215 to 217 °C
Cc1nc(-c2noc(Cc3ccccc3)n2)sc1C(=O)NCc1ccccc1 [Example 34, N-benzyl-2-(5-benzyl-1,2,4-oxadiazol-3-yl)-4-methylthiazole-5-carboxamide] | 124 to 125 °C
Cc1nc(-c2cnc(Cc3ccccc3)o2)sc1C(=O)NCc1ccccc1 [Example 36, N-benzyl-2-(2-benzyloxazol-5-yl)-4-methylthiazole-5-carboxamide] | 141 to 142 °C
